# Where two headings read alike, the source gives them in different places.
# Legend:
# [1] = biological target: T1, USP8 (Homo sapiens, UniProt P40818); experiment: High-throughput screening, Ub-RhoMP, single dose 1.25 µM; assay type: biochemical; details: for %inhibition USP8: crude in-plate synthesized compound, 1.25 µM assuming full conversion; for BB %inhibition USP8: individual amine building block (plate NCN-5)
# T1 construct: (1-1118); purchased Ubiquigent 64-0053-050
# T1 sequence (P40818 1-1118): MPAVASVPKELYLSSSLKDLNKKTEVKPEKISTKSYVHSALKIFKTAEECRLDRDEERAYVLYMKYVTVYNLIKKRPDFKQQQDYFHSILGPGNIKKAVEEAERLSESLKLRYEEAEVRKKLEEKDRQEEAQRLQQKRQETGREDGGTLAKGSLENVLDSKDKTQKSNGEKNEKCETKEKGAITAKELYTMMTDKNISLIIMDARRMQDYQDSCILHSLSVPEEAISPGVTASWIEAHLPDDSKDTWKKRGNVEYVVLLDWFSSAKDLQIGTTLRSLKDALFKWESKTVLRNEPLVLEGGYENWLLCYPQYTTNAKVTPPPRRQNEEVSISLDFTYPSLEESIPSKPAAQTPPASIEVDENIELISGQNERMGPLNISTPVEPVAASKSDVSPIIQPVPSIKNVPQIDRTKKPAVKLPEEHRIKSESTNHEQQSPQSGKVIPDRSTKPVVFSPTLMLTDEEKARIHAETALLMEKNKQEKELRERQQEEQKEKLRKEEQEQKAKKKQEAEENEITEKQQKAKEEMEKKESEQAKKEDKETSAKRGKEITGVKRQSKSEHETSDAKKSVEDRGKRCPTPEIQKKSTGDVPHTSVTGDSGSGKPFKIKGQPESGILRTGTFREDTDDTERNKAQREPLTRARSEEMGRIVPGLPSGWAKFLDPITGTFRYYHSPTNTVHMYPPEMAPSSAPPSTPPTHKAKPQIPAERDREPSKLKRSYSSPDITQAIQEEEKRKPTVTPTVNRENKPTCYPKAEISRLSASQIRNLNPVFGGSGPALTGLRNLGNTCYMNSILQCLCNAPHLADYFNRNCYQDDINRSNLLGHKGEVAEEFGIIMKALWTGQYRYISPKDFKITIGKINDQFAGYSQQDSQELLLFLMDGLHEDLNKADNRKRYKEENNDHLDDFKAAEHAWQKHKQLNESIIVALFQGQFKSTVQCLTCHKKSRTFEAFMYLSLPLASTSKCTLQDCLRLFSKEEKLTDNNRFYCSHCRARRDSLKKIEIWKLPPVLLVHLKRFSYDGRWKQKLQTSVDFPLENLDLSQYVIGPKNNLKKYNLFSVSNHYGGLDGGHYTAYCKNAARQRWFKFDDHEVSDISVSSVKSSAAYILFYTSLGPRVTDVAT
# Description: (§1) Since the in‐plate synthesis was conducted in 1536‐well Echo plates, the compounds could readily be transferred from these plates into 1536‐well assay plates using acoustic liquid dispensing (Figure 2a) and subjected to HTS. We screened the whole 7536 compound library against a panel of twelve enzymes, including three DUBs from the UCH family, two DUBs from the OTU family, five DUBs from the USP family, plus ISG15 protease USP18, and SUMO protease SENP1. Each compound was tested at a single dose of 1.25 µM, assuming full conversion (10 mM in DMSO of the formed products) during the in‐plate synthesis, using the fluorogenic assay described above. […] The compounds are sorted by the amine building blocks (BB1‐16), and within each BB, sorted by carboxylic acid (CA1‐471), thereby providing a comprehensive and systematic overview of the overall inhibition by each BB and CA combination. Some interesting patterns can be obtained from this map. […] Indeed, BB10 is the privileged scaffold for UCHL1 as it originates from UCHL1 inhibitor 5 (Figure 1). […] On the other hand, OTUD1 and USP32 show a much higher hit rate, and this is even more pronounced for USP30 and ISG15 protease mUSP18, each showing many active compounds distributed over several BB's.
# (§2) Purified recombinant enzymes used in this study
# (§3) High-throughput screening
# (§4) The screens were performed at room temperature in “flat bottom, non-treated, black […]
# (§5) µM. The compounds (10 nL each) were transferred from the 1 mM daughter plates to the […]
# (§6) Four wells containing DMSO
# (§7) (10 nL) and four wells containing NEM (10 mM final concentration) were used in each plate […]
# (§8) solution (1.33x final concentration) was added to each well, followed by incubation for 30 min.
# (§9) Next, 2 µL of a substrate solution (4x final concentration) was added to each well (Ub-RhoMP[2]
# (§10) After 1h or 2h incubation the
# (§11) The percentage inhibition was calculated for each well using the […]
# (§12) Where FIx is the fluorescence intensity of each well, FIpos is the average fluorescence intensity of the positive (NEM) control wells, and FIneg is the average fluorescence intensity of the negative (DMSO) control wells.
# [2] = biological target: T2, SENP1 (Homo sapiens, UniProt Q9P0U3); experiment: High-throughput screening, single dose 1.25 µM; assay type: biochemical; details: for %inhibition SENP1: crude in-plate synthesized compound, 1.25 µM assuming full conversion; for inhibition at 1.25 µM: individual amine building block (plate NCN-5), read-out: BB %inhibition SENP1
# T2 sequence (Q9P0U3 419-644): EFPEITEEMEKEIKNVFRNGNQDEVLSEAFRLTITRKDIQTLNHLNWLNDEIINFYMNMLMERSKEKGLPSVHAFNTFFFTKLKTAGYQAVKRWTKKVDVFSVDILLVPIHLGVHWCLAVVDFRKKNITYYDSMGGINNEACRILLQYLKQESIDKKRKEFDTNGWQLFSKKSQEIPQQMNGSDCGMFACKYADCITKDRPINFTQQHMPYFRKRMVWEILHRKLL
# Description: as §1, §2, §3, §4, §5, §6, §7, §8, §9, §10, §11, §12
# [3] = biological target: T3, mUSP18 (Mus musculus, UniProt Q9WTV6); experiment: High-throughput screening, ISG15ct-RhoMP, single dose 1.25 µM; assay type: biochemical, murine
# T3 construct: (46-368); His-tag (N); made in house
# T3 sequence (Q9WTV6 46-368): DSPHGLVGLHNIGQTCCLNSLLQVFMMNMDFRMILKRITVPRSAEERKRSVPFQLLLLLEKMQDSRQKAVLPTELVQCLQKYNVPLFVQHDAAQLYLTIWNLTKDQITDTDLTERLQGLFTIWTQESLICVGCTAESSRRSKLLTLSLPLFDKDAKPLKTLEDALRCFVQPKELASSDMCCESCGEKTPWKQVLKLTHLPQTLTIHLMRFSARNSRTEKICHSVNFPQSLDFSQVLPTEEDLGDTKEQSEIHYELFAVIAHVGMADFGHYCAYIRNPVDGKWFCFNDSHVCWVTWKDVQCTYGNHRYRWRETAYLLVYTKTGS
# [4] = biological target: T4, OTUB2 (Homo sapiens, UniProt Q96DC9); experiment: High-throughput screening, Ub-RhoMP, single dose 1.25 µM; assay type: biochemical; set-up: (1-234); His6 (cleaved yes); made in house; details: individual amine building block (plate NCN-5); read-out: BB %inhibition OTUB2
# T4 sequence (Q96DC9 1-234): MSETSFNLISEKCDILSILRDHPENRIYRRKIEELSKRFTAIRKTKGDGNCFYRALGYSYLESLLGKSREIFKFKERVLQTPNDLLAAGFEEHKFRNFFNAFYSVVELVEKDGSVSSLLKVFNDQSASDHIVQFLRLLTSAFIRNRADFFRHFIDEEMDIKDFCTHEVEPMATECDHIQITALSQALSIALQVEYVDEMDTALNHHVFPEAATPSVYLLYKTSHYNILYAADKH
# Description: as §1, §2, §3, §4, §5, §6, §7, §8, §9, §10, §11, §12
# [5] = crude in-plate synthesized compound, 1.25 µM assuming full conversion, read-out: %inhibition mUSP18
# [6] = individual amine building block (plate NCN-5), read-out: BB %inhibition mUSP18
Structure (SMILES),%inhibition USP8 [1] [%],%inhibition SENP1 [2] [%],"inhibition at 1.25 µM [3, 5] [%]",BB %inhibition USP8 [1] [%],inhibition at 1.25 µM [2] [%],inhibition at 1.25 µM [4] [%],"inhibition at 1.25 µM [3, 6] [%]"
N#CN1CC[C@@H](NC(=O)c2nc(N3CCCC3)ncc2Cl)C1 [BB01CA90],29.2,16.6,27.1,–,–,–,–
N#CN1CC[C@@H](NC(=O)C(Cc2c[nH]cn2)NS(=O)(=O)c2ccc(Cl)cc2)C1 (some centres unmarked) [BB01CA91],28.4,13.2,13.4,–,–,–,–
N#CN1CC[C@@H](NC(=O)Cc2csc(-c3cnccn3)n2)C1 [BB01CA92],32.5,12.8,24.6,–,–,–,–
N#CN1CC[C@@H](NC(=O)CCN(Cc2ccccc2)S(=O)(=O)c2c(Cl)cccc2Cl)C1 [BB01CA93],33.0,8.6,74.1,–,–,–,–
N#CN1CC[C@@H](NC(=O)c2ncoc2-c2cccs2)C1 [BB01CA94],24.1,8.5,24.1,–,–,–,–
N#CN1CC[C@@H](N)C1 [BB1],–,–,–,9.1,1.3,3.3,6.8
N#CN1CCC(N)CC1 [BB2],–,–,–,1.0,-2.9,0.9,4.3
N#CN1CC[C@H](N)C1 [BB3],–,–,–,3.6,-1,0.556,3.1
N#CN1CCC[C@@H](N)C1 [BB4],–,–,–,5.3,-2.1,2.7,3.9
N#CN1CC(N)C1 [BB5],–,–,–,1.7,-5.2,-1.4,-0.216
N#CN1C[C@H]2C[C@@H](N)C[C@H]2C1 [BB6],–,–,–,-1.3,-9,-1.5,-0.535
Cc1cc(C(=O)N[C@H]2C[C@@H]3CN(C#N)C[C@@H]3C2)ccc1Br [BB07CA28],–,–,95,–,–,–,–
N#CN1C[C@H]2C[C@H](N)C[C@H]2C1 [BB7],–,–,–,-1.7,-11.7,-3.8,-3.9
N#CN1CCC[C@H](N)C1 [BB8],–,–,–,1.5,0.5,-1.3,-1.5
N#CN1CC[C@@H](NC(=O)c2ccc(CN)cc2)C1 [BB9],–,–,–,20.0,-5,-2,2
N#CN1CC[C@H](C(=O)Nc2nc3c(s2)CNCC3)C1 [BB10],–,–,–,0.105,-5.4,-5.1,0.154
N#CN1CC[C@H](CN)C1 [BB11],–,–,–,-2.4,-12.3,-6.8,-3.8
N#CN1C[C@@H]2C[C@H]1CN2 [BB12],–,–,–,-2.5,-9.2,-6,-0.7
N#CN1C[C@H](N)[C@@H](O)C1 [BB13],–,–,–,0.0,10.1,5.6,-0.9
N#CN1CCC2(CCNC2)C1 (centres unmarked) [BB14],–,–,–,7.8,8.7,6.4,-1
N#CN1C[C@@H](F)[C@@H](N)C1 [BB15],–,–,–,2.7,0.022,-0.269,-5.8
N#CN1CCC(n2cc(N)cn2)CC1 [BB16],–,–,–,-3.5,4,0.0345,-4.3

# From article PMC12668310, “High‐Throughput Synthesis and Screening of a Cyanimide Library Identifies Selective Inhibitors of ISG15‐Specific Protease mUSP18” (Angewandte Chemie (International Ed. in English), 2025)
